Mass density data for 4 molecules are collected here from the NIST ThermoML archive (doi:10.1016/j.fluid.2011.12.008).

SMILES strings stand for the structures. ± gives the expanded uncertainty stated by the source.

For this data set the following is noted: 298.15 K; 101.33 kPa; Liquid; Vibrating tube method.
For `CCC[N+](C)(C)CC.O=S(=O)([N-]S(=O)(=O)C(F)(F)F)C(F)(F)F`, the mass density was 1403.5 ± 0.6 kg/m3. In the case of `CCCCCC[N+]1(C)CCCC1.O=S(=O)([N-]S(=O)(=O)C(F)(F)F)C(F)(F)F`, the mass density is recorded as 1336 ± 1.6 kg/m3. As to `CCCC[N+]1(C)CCCC1.O=S(=O)([N-]S(=O)(=O)C(F)(F)F)C(F)(F)F`, the mass density is recorded as 1394.3 ± 0.6 kg/m3. As for `CCCCCC[n+]1ccn(C)c1.O=S(=O)([N-]S(=O)(=O)C(F)(F)F)C(F)(F)F`, the mass density came to 1371.6 ± 0.7 kg/m3.
